Data published in US20240148745A1, “COMPOUNDS FOR USE IN PROGRESSIVE MULTIPLE SCLEROSIS” (FONDAZIONE CENTRO SAN RAFFAELE, priority 2021, published 2024).
Read-outs that look alike come from different tables or passages of the source.

Tests used:
[1] = tested on: rat oligodendrocyte progenitor CG4 line; assay: Differentiation assay on rat oligodendrocyte progenitor CG4 line (HCS, mCherry+); assay type: cell-based; settings: secondary screen of 49 selected compounds, 1 μM, 5 days
Procedure, shortened: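 Double-reporter CG4 cells (mCherry in mature oligodendrocytes, EGFP in all lineage stages) proliferated 24 h, then given compounds at 1 μM for 5 days of differentiation, ⅔ medium changed at day 3. 9cis-RA as positive control, basal medium and 0.1% DMSO as negative; triplicates imaged by HCS, 35 fields/well.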

rat primary OPC cultures = assay: Differentiation of rat primary OPC into MBP+ OLs; assay type: cell-based; settings: 96 h, 4 days of differentiation, read-out: MBP+ differentiation (MBP+/SOX10+ OLs plus compounds / plus basal medium)
Method: Secondary validation on primary rat OPC differentiation. Re-validation of the best performing compounds promoting OPC differentiation (fold change >1.5) was performed on primary rat OPC cultures in 96 well-plate run in triplicates by triple immunolabeling for CNPase, MBP and SOX10 as a readout. Compounds at […] were added for 4 days of differentiation and then cell cultures were imaged with ArrayScanXTI platform, number of MBP+OLs were quantified by semi-automated software. Basal medium served as a negative control, 9 cis-RA ([…]) was a positive control.
Re-validation of the 49 compounds selected from the short list (160 compounds) using rat primary OPC cultures (compounds tested in triplicates in 3 independent experiments. The secondary validation screen of these compounds performed on rat primary OPC cultures selected 17 best lead compounds with a pro-differentiation activity (MBP+/SOX10+OLs plus compounds/MBP+SOX10+ plus basal medium fold increase) induced a strong differentiation into MBP+OLs (fold increase >1.6). Results are shown in FIG. 7.

[2] = tested on: murine cortical neurons (14 DIV); assay: NMDA-mediated neuroprotective assay (CCK8 viability); assay type: cell-based, mouse; settings: 1 μM, 3 h pre-treatment, NMDA 8 μM 24 h, p<0.05
Method: To assess neuroprotective activity of 160 selected non-toxic compounds on primary murine cortical neurons, obtained as described in the previous paragraph, ([…]), cultures were pre-treated with 1 μM compounds for either 3 or 24 hours, followed by 24 hours chronic stimulation with NMDA (8 μM) to induce neuronal damage. Each test plate included: a negative control (untreated), vehicle-treated control (0.02% vol/vol DMSO), a positive neurotoxic control—staurosporine 0.1 μM, a stressor—NMDA 8 μM, a positive neuroprotective control—NAC 300 μM, and a combination of stressor +neuroprotective molecule (NMDA+NAC). Cell viability was measured with Cell Counting Kit-8 assay compared to NMDA-treated control.
The potential neuroprotective activity of 160 selected non-toxic compounds was evaluated on murine cortical neurons (14 DIV) with either 3 h (FIG. 13) or 24 h compounds pre-treatment (FIG. 14). In assay with 3 h pre-treatment, 17 compounds were identified as potential NMDA-neuroprotective hits (marked with black asterisk in FIG. 13, stat. significant at p<0.05, Kruskal-Wallis test with post-hoc two-stage linear step-up procedure of Benjamini, Krieger and Yekutieli multiple comparison correction).

[3] = tested on: iPSC-derived neurons (DIV45)
Method: This protocol was modified from Yuchen Qi et al.^32 First, neural progenitors (NPCs) were generated from hiPSCs by dual-SMAD inhibition. Shortly, at day 0 iPSC colonies (confluent at 70-80%) were washed with PBS Dulbecco's w/o Calcium w/o Magnesium (Euroclone) and hiPSCs' maintenance medium (mTeSR™, StemCell Technologies) was replaced with neural induction medium composed by DMEM/F12 plus N2 medium (1×), B27 without RA supplement (0.5×) (Life Technology), added with SB431542 (10 μM) and LDN (500 nM). This medium was kept until day 4 (“induction”). At day 4, cells were splitted (1:3) with the same induction medium using Accutase®/Accumax™ (StemCell Technologies) dissociated solution. Entire medium was replaced daily up to days 14-16 until rosette formation was observed (“patterning”). At days 14-16, cells were detached by Accutase®/Accumax™ and re-plated on polyornitine/laminin/fibronectin coated MW96 or MW24 plates for terminal differentiation in Neurobasal medium supplemented with B27 (0.5×), BDNF (20 ng/ml), dbcAMP (500 μM), ascorbic acid (200 μM), PD0325901 (1 μM), SU5402 (5 μM), CHIR (3 μM), human recombinant insulin (5 μg/ml), supplemented with RI (Rock inhibitor) (1:3000) to reduce dissociation induced apoptosis. The half of differentiation medium was changed every 3-4 days, supplemented with 1 μg/ml laminin and DAPT (1-2 μM) until terminal maturation of neuronal population (MAP2+ cells). Cultures were characterized by immunocytochemistry and qRT-PCR and neuroprotective experiments were performed on days 30-40 of differentiation.
Evaluation of cytotoxicity of 160 selected compounds on iPSC-derived neurons (DIV45).

mouse cortical neurons = assay: Morphological integrity evaluation, NMDA 8 μM (MAP2 neurite length and branching); assay type: cell-based; settings: 3 h pre-treatment, NMDA 8 μM 24 h; Z>0.5 criteria
Method: Apart of viability/metabolic readout in NMDA-mediated neurotoxicity assay, a neuronal structural integrity was evaluated by MAP2 staining. Mouse cortical neurons (14 DIV) cultured in MW96 plates were fixed with 4% paraformaldehyde (PFA). Fixed cells were incubated with blocking solution (PBS 1×, donkey serum 5%, Triton 0.1%) for 1-hour, primary antibody (rabbit α-MAP2, 1:250, Millipore) was applied in the same solution overnight at +4° C. […] Nuclei were stained with 4′-6-diamidino-2-phenylindole (DAPI, Roche). Microscopy was performed using ArrayScan™XTI (ThermoFisher) imaging platform. 15 images per well were acquired and analyzed by CellProfiler. Total neurite length and the total number of non-trunk branches were analyzed. Total neurite length and the total number of branching were evaluated from 15 images/well, each compound or control was tested in triplicates. The total neurite length and total number of branches were converted to a standardized Z-score using formula: Xij=((Xij−μ)/σ), where xij is the raw measurement of the compound located in well (i, j), and μ and σ are, respectively, the mean and the standard deviation of all measurements of the plate.^31
The morphological integrity of mouse cortical neurons upon chronic 24 h NMDA (8 μM) exposure with compounds pre-treatment (3 h) in preventive regimen was evaluated. Control (basal), DMSO, N-acetylcysteine (NAC) served as positive controls, while staurosporine and NMDA were negative controls.

[4] = tested on: iPSC-derived glutamatergic neurons; assay: ROS (tBuOOH)-mediated neuroprotective assay on hNeu; assay type: cell-based, human; settings: control line CTR4, 1 μM, p<0.05
Method: Neuroprotective experiments were performed using iPSC-derived glutamatergic neurons from 3 healthy controls cultured for 30-40 DIV. Cells were pre-treated for 24 h with […] of compounds, vehicle (DMSO) or 5 nM Mito-Q (mitoquinone) served as a positive control. On the next day cells were incubated for 2 h with 100 µM of tert-butyl peroxide (tBuOOH, Sigma), then the medium was replaced and the viability readout by CCK8 viability assay kit (Dojindo) was performed on the following day. The cell viability was expressed as normalized Z score and compared to tBuOOH-treated cells with nonparametric Kruskal-Wallis test with Dunn's multiple comparisons correction.
32 “Front runners” and 7 compounds from short list were tested on iPSC-derived neurons from three control lines in ROS-mediated assay to evaluate a neuroprotective potential of selected compounds. Three independent experiments were performed for CTR4 and CTR8, FIG. 20 (A, C), while two independent experiments were performed for CTR7, FIG. 20 (B).

[5] = tested on: human iPS-derived neuroprecursors; assay: Differentiation of human iPS-derived neuroprecursors into MBP+ oligodendrocytes; assay type: cell-based; settings: 1 μM in minimal medium, p<0.05
Excerpt: NPC bearing a doxycycline inducible polycistronic construct containing SOX10, OLIG2 and NKX6.2^29 in a human safe harbor (passages 10 to 25) were singularized on day −3 by treatment with Accutase and plated on Matrigel-coated 12-well plates at a density of 100.000 cells per well in N2B27-medium containing equal parts of neurobasal (Invitrogen) and DMEM-F12 medium (Invitrogen) with 1:100 B27 supplement lacking vitamin A (Invitrogen), 1:200 N2 supplement (Invitrogen), 1% penicillin/streptomycin/glutamine (PSG), 3 μM CHIR99021 (Axon Medchem), 150 μM ascorbic acid and 0.5 μM SAG. The next day medium was changed to N2B27-medium containing 1 μg/ml doxycycline. On DO medium was changed to glial-induction medium (GIM) consisting of DMEM-F12 with 1:100 B27 supplement lacking vitamin A, 1:200 N2 supplement, 1% PSG, 1 μM SAG, 10 ng/mL NT3 (Peprotech), 10 ng/mL IGF-I (Peprotech), 200 μM AA (Sigma), 1:1000 Trace Elements B (Corning). For full medium conditions 10 ng/ml T3 was added. On Day 2 medium was changed to glial-differentiation medium (GDM) comprising DMEM-F12 with 1:100 B27 supplement lacking vitamin A, 1:200 N2 supplement, 1% PSG, 100 μM dbCAMP (Sigma), 100 μM AA, 1:1000. For full medium conditions 60 ng/mL T3, Trace Elements B 10 ng/mL, IGF-I, 10 ng/mL and NT3 were added to the culture. GDM was changed every other day. On day 7 cells were detached by treatment with Accutase and re-plated on laminin coated 48-well plates at densities of 10.000-12.000 cells per well. After 24 h cells were treated in minimal medium with either vehicle alone [0.01% (vol/vol) DMSO] as a negative control, 60 ng/mL T3 as a positive control, or with a drug candidate dissolved in DMSO. Medium was changed every other day. On D16 doxycycline was removed from the medium. Cells were fixed on D21 and analyzed via immunocytochemistry.
Immunocytochemistry. Cells were initially fixed with 4% PFA treatment for 20 min, RT. Following three washes with PBS cells were incubated with blocking solution containing 5% normal goat serum (NGS) and 5% FCS (fetal calf serum) in PBS for 30 min at RT to prevent unspecific binding of the antibodies. To detect intracellular antigens cells were permeabilized by adding 0.5% Triton X-100 to the Blocking-solution. Cells treated with Triton X-100 were washed three times with PBS each time for 5 min at RT. Primary antibodies (rat anti-MBP,1:50, Abcam, AB7349) were applied overnight, 4° C., in blocking solution. The next day cells were washed 3 times with PBS at RT, and afterwards incubated with secondary antibodies (AF488 Alexa Fluor anti-rat (goat), 1:500, Jackson/Dianova, #112-545-167) diluted in PBS for 1 h at RT. Secondary antibodies were subsequently removed by washing 3 times with PBS. Afterwards PBS containing a Dapi staining for nuclei was added for 5 minutes and afterwards washed off with PBS. Cells were kept at 4° C. until imaging.
Imaging and evaluation. From each condition (triplicates) 20-30 pictures were taken randomly chosen by the Dapi-signal. Cell numbers were determined by using an ImageJ Macro to count the nuclei whereas MBP positive cells were subsequently counted manually in black and white images.
The effect on oligodendroglial differentiation of 32 compounds (“Front runners”) was tested. Induced pluripotent stem cells in which the transcription factors SOX10, OLIG2, NKX6.2 were inserted in a doxycycline inducible manner into a human safe harbor were differentiated into neural stem cells. Differentiation into oligodendrocytes was induced by addition of doxycycline. Cells were cultured either in a minimal medium (MM) (negative control) or in MM with the different compounds at a concentration of 1 μM. Addition of T3 to the minimal medium served as a positive control.

In the case of `Cc1c(Cc2ccc3ccccc3n2)c2cc(F)ccc2n1CC(=O)O` [0C000459, TIMAPIPRANT], the “CG4 differentiation compared with 9cis-RA positive control” value (shortened to “CG4 differentiation”) [1] is reported as “promoting differentiation significantly higher than 9cis-RA positive control”, the fold induction at 1 µM (rat primary OPC cultures) is reported as greater than 1.6 and the “neuroprotection of viability/metabolic activity against NMDA” value [2] is reported as “hit compounds”. The “viability compared to DMSO” value ([3]; human) was 65-80%.

With `CNCc1ccc(C)c(NC(=O)c2ccc(Nc3nc(-c4ccccc4)c4ccccc4n3)cc2)c1` [BMS-833923] the “CG4 differentiation” value [1] was “promoting differentiation significantly higher than 9cis-RA positive control” and the “viability compared to DMSO” value ([3]; human) was 65-80%.

`Cc1nc(C#Cc2ccnc(Cl)c2)c(C)n1-c1ccc(F)cc1` [Basimglurant] was tested, and the “preservation of neurite length and network integrity (branching)” value (mouse cortical neurons) was “preserved both neurite length and the network integrity (branching)” and the “viability compared to DMSO” value ([3]; human) was 65-80%.

With `OC1CCC(Nc2nc(-c3ccccc3)nc3[nH]ccc23)CC1` (centres unmarked) [Derenofylline] the “viability compared to DMSO” value ([3]; human) was 65-80%.

`Oc1ccc([C@H]2COc3cc(O)ccc3C2)cc1` [Equol] was tested, and the “CG4 differentiation” value [1] was “promoting differentiation significantly higher than 9cis-RA positive control” and the “protection from tBuOOH insult” value [4] was “protected from tBuOOH insult”.

In the case of `CNC(=O)c1ccc(Oc2ccc3c(c2)CCN(C2CCC2)CC3)nc1` [GSK189254], the “CG4 differentiation” value [1] is reported as “promoting differentiation significantly higher than 9cis-RA positive control”, the “differentiation into MBP+ oligodendrocytes” value [5] is reported as “promote significantly (p<0.05) the differentiation into MBP+ oligodendrocytes” and the “differentiation into MBP+ oligodendrocytes” value ([5]; listed as Gsk189254) is reported as “promote significantly the differentiation into MBP+ oligodendrocytes”. For the same compound, the “neuroprotection of viability/metabolic activity against NMDA” value [2] was “hit compounds” and the “protection from tBuOOH insult” value [4] was “protected from tBuOOH insult”.

With `CCn1c(=O)c2c(nc(/C=C/c3ccc(OC)c(OC)c3)n2C)n(CC)c1=O` [Istradefylline] the “viability compared to DMSO” value ([3]; human) was 65-80%.

With `CC[C@@H](Oc1cccc(CN(CCCOc2ccc(OC)cc2)c2nc3ccccc3o2)c1)C(=O)O` [K-877 Pemafibrate] the “viability compared to DMSO” value [3] was 65-80%.

`CC1(C)CC(C)(C)CC(C)(N)C1` [Neramexane] was tested, and the “CG4 differentiation” value [1] was “promoting differentiation significantly higher than 9cis-RA positive control”, the “neuroprotection of viability/metabolic activity against NMDA” value [2] was “hit compounds” and the “preservation of neurite length and network integrity (branching)” value (mouse cortical neurons) was “preserved both neurite length and the network integrity (branching)”. The “viability compared to DMSO” value [3] was 65-80%.

With `COc1cccc(OC)c1-c1cc(C(=O)NC2(C(=O)O)C3CC4CC(C3)CC2C4)nn1-c1ccnc2cc(Cl)ccc12` (centres unmarked) [Reminertant] the “viability compared to DMSO” value ([3]; human) was 65-80%.
